Data: ChEMBL document CHEMBL2407065, “Discovery of 7-aminofuro[2,3-c]pyridine inhibitors of TAK1: optimization of kinase selectivity and pharmacokinetics” (Bioorg Med Chem Lett, 2013)

Tests used:
[1] = test system: Liver microsomes; assay: Drug metabolism in human liver microsomes assessed as M+176 formation; assay type: ADME, Microsome
[2] = Half life in mouse at 2 mg/kg, iv; assay type: ADME, organism-based; set-up: dose 2 mg/kg, route intravenous; conditions: in vivo
[3] = Cmax in mouse at 20 mg/kg, po; assay type: ADME, organism-based; set-up: dose 20 mg/kg, route oral; conditions: in vivo
[4] = Drug metabolism in mouse liver microsomes assessed as M+176 formation; assay type: ADME, Microsome
[5] = AUC (0 to last) in mouse at 20 mg/kg, po; assay type: ADME, organism-based; set-up: time 0 - last, dose 20 mg/kg, route oral; conditions: plasma
[6] = AUC (0 to infinity) in mouse at 2 mg/kg, iv; assay type: ADME, organism-based; set-up: dose 2 mg/kg, route intravenous, time infinity; conditions: plasma
[7] = Oral bioavailability in mouse at 20 mg/kg; assay type: ADME, organism-based; conditions: in vivo
[8] = Volume of distribution at steady state in mouse at 2 mg/kg, iv; assay type: ADME, organism-based; set-up: dose 2 mg/kg, route intravenous; conditions: in vivo, read-out: Vdss
[9] = Clearance in mouse at 2 mg/kg, iv; assay type: ADME, organism-based; set-up: dose 2 mg/kg, route intravenous; conditions: in vivo
[10] = AUC (0 to infinity) in mouse at 20 mg/kg, po; assay type: ADME, organism-based; set-up: time infinity, dose 20 mg/kg, route oral; conditions: plasma
[11] = molecular target: Vascular endothelial growth factor receptor 2 (Homo sapiens, UniProt P35968); assay: Inhibition of KDR autophosphorylation overexpressed in VEGF-stimulated human HEK293 cells; assay type: cell-based
[12] = molecular target: TAK1/TAB1 (Homo sapiens, UniProt O43318); assay: Inhibition of TAK1-TAB1 (unknown origin) by alphascreen assay in presence of ATP; assay type: protein-complex assay
[13] = Metabolic stability in human liver microsomes assessed as extraction ratio; assay type: ADME, Microsome; conditions: read-out: ERH
[14] = molecular target: Aurora kinase B (Homo sapiens, UniProt Q96GD4); assay: Inhibition of aurora B kinase in human HT-29 cells assessed as inhibition of histone H3 S10 phosphorylation; assay type: cell-based
[15] = Tmax in mouse at 20 mg/kg, po; assay type: ADME, organism-based; set-up: dose 20 mg/kg, route oral; conditions: in vivo
[16] = Metabolic stability in mouse liver microsomes assessed as extraction ratio; assay type: ADME, Microsome; conditions: read-out: ERH
[17] = molecular target: T1, Mitogen-activated protein kinase kinase kinase 7 (Homo sapiens, UniProt O43318); assay: Inhibition of TAK1 in human HCT116 cells assessed as inhibition of TNF-alpha-stimulated JNK phosphorylation; assay type: cell-based, HCT-116
T1 sequence (O43318 whole entry): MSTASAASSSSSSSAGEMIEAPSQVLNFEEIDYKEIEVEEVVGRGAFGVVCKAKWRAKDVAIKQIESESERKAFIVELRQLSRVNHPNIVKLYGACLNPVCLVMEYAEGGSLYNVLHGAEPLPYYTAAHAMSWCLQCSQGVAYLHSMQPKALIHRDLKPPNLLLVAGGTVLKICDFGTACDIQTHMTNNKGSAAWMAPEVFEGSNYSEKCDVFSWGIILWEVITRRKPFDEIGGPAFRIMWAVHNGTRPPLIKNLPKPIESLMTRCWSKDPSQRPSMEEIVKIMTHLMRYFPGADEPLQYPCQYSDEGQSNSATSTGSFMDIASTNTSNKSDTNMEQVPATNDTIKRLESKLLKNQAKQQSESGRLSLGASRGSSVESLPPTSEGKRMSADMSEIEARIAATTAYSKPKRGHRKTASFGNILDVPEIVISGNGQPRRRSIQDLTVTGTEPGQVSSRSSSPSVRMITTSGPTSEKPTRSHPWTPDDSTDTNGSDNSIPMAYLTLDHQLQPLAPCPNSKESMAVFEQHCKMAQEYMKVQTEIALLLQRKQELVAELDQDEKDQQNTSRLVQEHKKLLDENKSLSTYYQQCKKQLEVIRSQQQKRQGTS

[18] = Antitumor activity against human TOV21G cells xenografted in CD-1 nude mouse assessed as tumor growth inhibition at 100 mg/kg, sc qd administered for 14 days measured on day 15 relative to vehicle-treated control; assay type: functional; conditions: route subcutaneous, read-out: TGI
[19] = AUC (0 to infinity) in mouse at 100 mg/kg, po; assay type: ADME, organism-based; set-up: time infinity, dose 100 mg/kg, route oral; conditions: plasma
[20] = Cmax in mouse at 100 mg/kg, po; assay type: ADME, organism-based; set-up: dose 100 mg/kg, route oral; conditions: in vivo
[21] = Oral bioavailability in mouse at 100 mg/kg; assay type: ADME, organism-based; conditions: in vivo
[22] = molecular target: T1, Mitogen-activated protein kinase kinase kinase 7; assay: Inhibition of TAK1 in human TOV21G cells assessed as inhibition of JNK phosphorylation

Chain of Vascular endothelial growth factor receptor 2 (P35968 whole entry): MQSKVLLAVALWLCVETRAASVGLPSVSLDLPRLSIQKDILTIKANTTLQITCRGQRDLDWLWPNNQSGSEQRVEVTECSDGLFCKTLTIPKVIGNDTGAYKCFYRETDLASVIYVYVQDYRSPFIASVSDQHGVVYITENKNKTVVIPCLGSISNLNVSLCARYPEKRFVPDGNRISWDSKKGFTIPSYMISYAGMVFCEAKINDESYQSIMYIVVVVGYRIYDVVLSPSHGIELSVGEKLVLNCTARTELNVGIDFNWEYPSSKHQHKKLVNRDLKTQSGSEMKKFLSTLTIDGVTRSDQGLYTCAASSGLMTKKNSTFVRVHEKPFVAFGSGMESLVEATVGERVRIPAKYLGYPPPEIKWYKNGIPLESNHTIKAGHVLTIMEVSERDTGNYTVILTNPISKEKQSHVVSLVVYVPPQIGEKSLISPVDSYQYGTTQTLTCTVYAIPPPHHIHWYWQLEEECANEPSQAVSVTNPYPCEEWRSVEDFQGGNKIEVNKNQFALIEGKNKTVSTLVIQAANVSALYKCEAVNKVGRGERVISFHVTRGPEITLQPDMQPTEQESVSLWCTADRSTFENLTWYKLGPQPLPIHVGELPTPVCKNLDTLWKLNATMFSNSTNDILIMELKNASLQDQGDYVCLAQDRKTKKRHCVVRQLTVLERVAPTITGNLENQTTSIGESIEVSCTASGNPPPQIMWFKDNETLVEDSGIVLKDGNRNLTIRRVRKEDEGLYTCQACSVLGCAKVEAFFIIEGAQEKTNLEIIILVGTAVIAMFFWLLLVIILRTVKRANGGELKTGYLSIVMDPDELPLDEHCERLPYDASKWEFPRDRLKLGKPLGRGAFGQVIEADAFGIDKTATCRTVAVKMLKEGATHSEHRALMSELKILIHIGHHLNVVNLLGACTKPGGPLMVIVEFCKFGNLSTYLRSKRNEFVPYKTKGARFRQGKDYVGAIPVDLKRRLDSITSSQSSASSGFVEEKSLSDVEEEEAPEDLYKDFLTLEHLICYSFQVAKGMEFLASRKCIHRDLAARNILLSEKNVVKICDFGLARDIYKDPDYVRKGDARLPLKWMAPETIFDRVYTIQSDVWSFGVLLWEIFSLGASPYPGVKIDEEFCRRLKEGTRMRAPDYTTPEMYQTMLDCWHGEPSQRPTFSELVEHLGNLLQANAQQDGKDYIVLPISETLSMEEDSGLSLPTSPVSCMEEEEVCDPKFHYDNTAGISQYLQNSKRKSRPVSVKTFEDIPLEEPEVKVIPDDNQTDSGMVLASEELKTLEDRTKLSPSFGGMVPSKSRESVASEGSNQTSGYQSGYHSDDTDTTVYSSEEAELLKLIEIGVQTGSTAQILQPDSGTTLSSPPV
Chain of Aurora kinase B (Q96GD4 whole entry): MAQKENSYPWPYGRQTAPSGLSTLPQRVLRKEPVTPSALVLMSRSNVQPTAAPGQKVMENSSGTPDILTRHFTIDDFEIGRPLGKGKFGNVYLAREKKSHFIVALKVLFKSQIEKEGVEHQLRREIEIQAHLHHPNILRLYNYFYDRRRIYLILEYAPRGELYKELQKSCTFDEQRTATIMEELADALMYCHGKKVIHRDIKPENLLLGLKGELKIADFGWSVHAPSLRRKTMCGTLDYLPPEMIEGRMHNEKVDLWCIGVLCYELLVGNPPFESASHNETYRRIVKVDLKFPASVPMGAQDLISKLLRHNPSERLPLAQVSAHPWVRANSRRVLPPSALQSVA
Chain of TAK1/TAB1 (Q15750 whole entry, one chain of several): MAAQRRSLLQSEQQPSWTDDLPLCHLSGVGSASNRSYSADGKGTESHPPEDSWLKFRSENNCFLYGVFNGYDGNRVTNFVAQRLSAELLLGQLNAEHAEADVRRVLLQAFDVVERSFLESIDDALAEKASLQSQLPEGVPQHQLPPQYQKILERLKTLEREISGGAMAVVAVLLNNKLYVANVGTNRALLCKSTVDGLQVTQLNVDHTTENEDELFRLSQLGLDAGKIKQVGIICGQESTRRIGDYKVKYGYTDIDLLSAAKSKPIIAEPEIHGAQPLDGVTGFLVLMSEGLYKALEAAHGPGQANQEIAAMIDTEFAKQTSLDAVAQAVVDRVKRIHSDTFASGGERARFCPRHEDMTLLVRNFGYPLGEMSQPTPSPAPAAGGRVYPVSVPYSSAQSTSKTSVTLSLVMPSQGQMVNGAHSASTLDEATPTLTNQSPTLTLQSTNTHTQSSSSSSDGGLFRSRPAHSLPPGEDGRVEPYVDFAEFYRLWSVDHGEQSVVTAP

Row | IC50 [11] | IC50 [12] | IC50 [14] | IC50 [17] | SMILES | also measured
1 | – | – | – | – | CC(=O)N1CCC(n2cc(-c3cnc(N)c4oc(-c5csc6cnccc56)cc34)cn2)CC1 | Drug metabolism [1]: Active; half-life [2]: 6 min; Cmax [3]: 0.03 µM; Drug metabolism [4]: Active; AUC(0-t) [5]: 21 ng·h/mL; AUC(0-inf) [6]: 187 ng·h/mL; bioavailability [7]: 1%; Vd [8]: 2.5 L/kg; clearance [9]: 178 mL/min/kg
2 | – | – | – | – | Nc1ncc(-c2cnn([C@H]3CC[C@H](O)CC3)c2)c2cc(-c3cccc4cnsc34)oc12 | half-life [2]: 198 min; Cmax [3]: 1.1 µM; AUC(0-inf) [10]: 821 ng·h/mL; AUC(0-inf) [6]: 299 ng·h/mL; bioavailability [7]: 27%; Vd [8]: 12 L/kg; clearance [9]: 111 mL/min/kg
3 | 0.65 µM | 9 nM | 0.16 µM | 15 nM | Nc1ncc(-c2cnn([C@H]3CC[C@H](O)CC3)c2)c2cc(-c3cccc4nnsc34)oc12 | hepatic extraction ratio [13]: 0.48; half-life [2]: 96 min; Cmax [3]: 7.8 µM; AUC(0-inf) [10]: 16000 ng·h/mL; AUC(0-inf) [6]: 477 ng·h/mL; Vd [8]: 4.1 L/kg; clearance [9]: 70 mL/min/kg; Tmax [15]: 8 h; hepatic extraction ratio [16]: 0.63
4 | > 20 µM | – | 6.5 µM | 18 nM | Nc1ncc(-c2cnn([C@H]3CC[C@H](O)CC3)c2)c2c(Cl)c(-c3cccc4nnsc34)oc12 | inhibition in vivo at 100 mg/kg [18]: 62%; hepatic extraction ratio [13]: 0.4; half-life [2]: 126 min; Cmax [3]: 3.8 µM; AUC(0-inf) [19]: 26800 ng·h/mL; Cmax [20]: 7.1 µM; AUC(0-inf) [10]: 8770 ng·h/mL; bioavailability [21]: 32%; AUC(0-inf) [6]: 1700 ng·h/mL; bioavailability [7]: 52%; Vd [8]: 2.1 L/kg; IC50 [22]: 28 nM; clearance [9]: 20 mL/min/kg; hepatic extraction ratio [16]: 0.39
5 | > 20 µM | 160 nM | > 10 µM | 17 nM | N#Cc1c(-c2cccc3nnsc23)oc2c(N)ncc(-c3cnn([C@H]4CC[C@H](O)CC4)c3)c12 | hepatic extraction ratio [13]: 0.38; hepatic extraction ratio [16]: 0.43
6 | 8.2 µM | 110 nM | 6.9 µM | 130 nM | Nc1ncc(-c2cnn([C@H]3CC[C@H](O)CC3)c2)c2c(-c3cccnc3)c(-c3cccc4nnsc34)oc12 | hepatic extraction ratio [13]: 0.41; hepatic extraction ratio [16]: 0.48
7 | 0.76 µM | 31 nM | 1.7 µM | 43 nM | Nc1ncc(-c2cnn([C@H]3CC[C@H](O)CC3)c2)c2c(-c3cncs3)c(-c3cccc4nnsc34)oc12 | hepatic extraction ratio [13]: 0.55; hepatic extraction ratio [16]: 0.53
8 | 18.3 µM | 17 nM | 1.5 µM | 45 nM | Nc1ncc(-c2cnn([C@H]3CC[C@H](O)CC3)c2)c2c(CF)c(-c3cccc4nnsc34)oc12 | hepatic extraction ratio [13]: 0.49; hepatic extraction ratio [16]: 0.43
9 | > 20 µM | 14 nM | 1.7 µM | 20 nM | Nc1ncc(-c2cnn([C@H]3CC[C@H](O)CC3)c2)c2c(C(F)F)c(-c3cccc4nnsc34)oc12 | hepatic extraction ratio [13]: 0.48; half-life [2]: 108 min; Cmax [3]: 18.6 µM; AUC(0-inf) [10]: 33700 ng·h/mL; AUC(0-inf) [6]: 3440 ng·h/mL; bioavailability [7]: 98%; Vd [8]: 1 L/kg; clearance [9]: 10 mL/min/kg; hepatic extraction ratio [16]: 0.39
10 | 3.4 µM | 150 nM | 3 µM | 190 nM | Cn1cc(-c2cnc(N)c3oc(-c4csc5cnccc45)cc23)cn1 | –
11 | – | 4900 nM | – | – | Cn1ccc(-c2cnc(N)c3oc(-c4csc5cnccc45)cc23)c1 | –
12 | – | 12700 nM | – | – | Cn1cnc(-c2cnc(N)c3oc(-c4csc5cnccc45)cc23)c1 | –
13 | – | 560 nM | – | – | Nc1ncc(-c2ccoc2)c2cc(-c3csc4cnccc34)oc12 | –
14 | – | 2100 nM | – | – | Cc1ccc(-c2cnc(N)c3oc(-c4csc5cnccc45)cc23)o1 | –
15 | – | 2200 nM | – | – | Nc1ncc(-c2ccsc2)c2cc(-c3csc4cnccc34)oc12 | –
16 | – | 4600 nM | – | – | Cc1ccc(-c2cnc(N)c3oc(-c4csc5cnccc45)cc23)s1 | –
17 | – | 1400 nM | – | – | Nc1ncc(-c2cscn2)c2cc(-c3csc4cnccc34)oc12 | –
18 | – | 230 nM | – | – | Cc1ncc(-c2cnc(N)c3oc(-c4csc5cnccc45)cc23)s1 | –
19 | – | 3200 nM | – | – | Nc1ncc(-c2ccccc2)c2cc(-c3csc4cnccc34)oc12 | –
20 | – | 3800 nM | – | – | Nc1ncc(-c2cccnc2)c2cc(-c3csc4cnccc34)oc12 | –
21 | – | 2900 nM | – | – | COCC#Cc1cnc(N)c2oc(-c3csc4cnccc34)cc12 | –
22 | > 20 µM | 3500 nM | > 20 µM | 1000 nM | Cc1nn(C)cc1-c1cnc(N)c2oc(-c3csc4cnccc34)cc12 | –
23 | 19.9 µM | 4100 nM | 17.4 µM | 3000 nM | Cc1c(-c2cnc(N)c3oc(-c4csc5cnccc45)cc23)cnn1C | –
24 | – | 23900 nM | – | 4400 nM | Cc1nn(C)c(C)c1-c1cnc(N)c2oc(-c3csc4cnccc34)cc12 | –
25 | > 20 µM | 600 nM | > 20 µM | 1700 nM | COc1nn(C)cc1-c1cnc(N)c2oc(-c3csc4cnccc34)cc12 | –
26 | – | 22800 nM | – | > 10000 nM | Cn1cc(-c2cnc(N)c3oc(-c4csc5cnccc45)cc23)c(C#N)n1 | –

Row | SMILES | IC50 [11] | IC50 [12] | IC50 [14] | IC50 [17] | also measured
27 | Nc1ncc(C2=CCNCC2)c2cc(-c3csc4cnccc34)oc12 | – | 23600 nM | – | – | –
